Measured values from patent publication US9499550B2 (BRISTOL-MYERS SQUIBB COMPANY, priority 2012, dated 2016).
Where two headings read alike, the source gives them in different places.

Assays:
[1] = tested on: HCV genotype 1a (H77 strain) replicon in HUH-7 cells; experiment: HCV replicon luciferase reporter assay, genotype 1a; format: cell-based; settings: Hepatitis C virus, Huh-7, 72 h, HCV genotype 1a replicon luciferase, 3 days incubation
Procedure, shortened: (§1)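 Replicon inhibition for both genotypes was measured as Renilla luciferase signal (EnduRen, 7.5 μM final, 2 h) after 3-day, 37° C exposure of replicon-bearing HUH-7 cells in 4% FCS DMEM, 0.5% DMSO. The 1b construct carries S1179I; the 1a H77 construct carries P1496L and S2204I. Twenty-point, 3-fold dilutions were fitted four-parametrically for EC50, and CC50 was taken from multiplexed Cell Titer-Blue.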

[2] = tested on: HCV genotype 1b (Con1) replicon in HUH-7 cells; experiment: HCV replicon luciferase reporter assay, genotype 1b; format: cell-based; settings: Hepatitis C virus, Huh-7, 72 h, HCV genotype 1b replicon luciferase, 3 days incubation
Procedure, shortened: as §1

Structure (SMILES) | EC50 ([1]; read-out: LE_1a (EC50, range)) | EC50 ([2]; read-out: LE_1b (EC50, range)) | EC50 ([1]; read-out: LE_1a (EC50)) | EC50 ([2]; read-out: LE_1b (EC50)) | EC50 ([1]; GETYPE1A, read-out: LE_1a (EC50, range)) | EC50 ([2]; GETYPE1B, read-out: LE_1b (EC50, range))
COc1ccc2c(O[C@@H]3C[C@H]4C(=O)N[C@]5(C(=O)NS(=O)(=O)C6(C)CC6)C[C@H]5/C=C\CC[C@H](C)C[C@@H](C)[C@H](NC(=O)O[C@H](C)C(F)(F)F)C(=O)N4C3)nc(-c3ccc(OC(C)C)cc3)c(OC)c2c1 [Compound 5349, (R)-1,1,1-trifluoropropan-2-yl ((2R,6S,7R,9S,13aS,14aR,16aS,Z)-2-((3-(4-isopropoxyphenyl)-4,6-dimethoxyisoquinolin-1-yl)oxy)-7,9-dimethyl-14a-(((1-methylcyclopropyl)sulfonyl)carbamoyl)-5,16-dioxo-1,2,3,5,6,7,8,9,10,11,13a,14,14a,15,16,16a-hexadecahydrocyclopropa[e]pyrrolo[1,2-a][1,4]diazacyclopentadecin-6-yl)carbamate] | 4.82 to 103 nM | < 5.46 nM | – | – | – | –
COc1ccc2c(O[C@@H]3C[C@H]4C(=O)N[C@]5(C(=O)NS(=O)(=O)C6(C)CC6)C[C@H]5/C=C\CC[C@@H](C)C[C@@H](C)[C@H](NC(=O)O[C@H](C)C(F)(F)F)C(=O)N4C3)nc(-c3ccc(OC(C)C)cc3)c(OC)c2c1 [Compound 5350, (R)-1,1,1-trifluoropropan-2-yl ((2R,6S,7R,9R,13aS,14aR,16aS,Z)-2-((3-(4-isopropoxyphenyl)-4,6-dimethoxyisoquinolin-1-yl)oxy)-7,9-dimethyl-14a-(((1-methylcyclopropyl)sulfonyl)carbamoyl)-5,16-dioxo-1,2,3,5,6,7,8,9,10,11,13a,14,14a,15,16,16a-hexadecahydrocyclopropa[e]pyrrolo[1,2-a][1,4]diazacyclopentadecin-6-yl)carbamate] | < 5.46 nM | < 5.46 nM | 2.12 nM | 1.48 nM | – | –
COc1cnc(O[C@@H]2C[C@H]3C(=O)N[C@]4(C(=O)NS(=O)(=O)C5CCC5)C[C@H]4/C=C\CC[C@@H](C)C[C@@H](C)[C@H](NC(=O)OC(C)(C)C)C(=O)N3C2)c2ccccc12 [Compound 5352] | < 5.46 nM | < 5.46 nM | – | – | – | –
COc1cnc(O[C@@H]2C[C@H]3C(=O)N[C@]4(C(=O)NS(=O)(=O)C5CCC5)C[C@H]4/C=C\CC[C@H](C)C[C@@H](C)[C@H](NC(=O)OC(C)(C)C(F)(F)F)C(=O)N3C2)c2ccccc12 [Compound 5353, 1,1,1-trifluoro-2-methylpropan-2-yl((2R,6S,7R,9S,13aS,14aR,16aS,Z)-14a-((cyclobutylsulfonyl)carbamoyl)-2-((4-methoxyisoquinolin-1-yl)oxy)-7,9-dimethyl-5,16-dioxo-1,2,3,5,6,7,8,9,10,11,13a,14,14a,15,16,16a-hexadecahydrocyclopropa[e]pyrrolo[1,2-a][1,4]diazacyclopentadecin-6-yl)carbamate] | 4.82 to 103 nM | < 5.46 nM | – | – | – | –
COc1cnc(O[C@@H]2C[C@H]3C(=O)N[C@]4(C(=O)NS(=O)(=O)C5CCC5)C[C@H]4/C=C\CC[C@@H](C)C[C@@H](C)[C@H](NC(=O)OC(C)(C)C(F)(F)F)C(=O)N3C2)c2ccccc12 [Compound 5354, 1,1,1-trifluoro-2-methylpropan-2-yl((2R,6S,7R,9R,13aS,14aR,16aS,Z)-14a-((cyclobutylsulfonyl)carbamoyl)-2-((4-methoxyisoquinolin-1-yl)oxy)-7,9-dimethyl-5,16-dioxo-1,2,3,5,6,7,8,9,10,11,13a,14,14a,15,16,16a-hexadecahydrocyclopropa[e]pyrrolo[1,2-a][1,4]diazacyclopentadecin-6-yl)carbamate] | < 5.46 nM | < 5.46 nM | – | – | – | –
CCOc1cnc(O[C@@H]2C[C@H]3C(=O)N[C@]4(C(=O)NS(=O)(=O)C5(CF)CC5)C[C@H]4/C=C\CC[C@@H](C)C[C@@H](C)[C@H](NC(=O)OC(C)(C)C(C)(F)F)C(=O)N3C2)c2ccccc12 [Compound 5355] | – | – | – | – | 1.01 to 5 nM | 1.01 to 5 nM
CCOc1ccc2c(O[C@@H]3C[C@H]4C(=O)N[C@]5(C(=O)NS(=O)(=O)C6CC6)C[C@H]5/C=C\CC[C@@H](C)C[C@@H](CC)[C@H](NC(=O)OC(C)(C)C(F)(F)F)C(=O)N4C3)nccc2c1 [Compound 5357, 1,1,1-trifluoro-2-methylpropan-2-yl((2R,6S,7R,9R,13aS,14aR,16aS,Z)-14a-((cyclopropylsulfonyl)carbamoyl)-2-((6-ethoxyisoquinolin-1-yl)oxy)-7-ethyl-9-methyl-5,16-dioxo-1,2,3,5,6,7,8,9,10,11,13a,14,14a,15,16,16a-hexadecahydrocyclopropa[e]pyrrolo[1,2-a][1,4]diazacyclopentadecin-6-yl)carbamate] | 1.01 to 5 nM | 0.51 to 1 nM | – | – | – | –
CCOc1ccc2c(O[C@@H]3C[C@H]4C(=O)N[C@]5(C(=O)NS(=O)(=O)C6CC6)C[C@H]5/C=C\CC[C@@H](C)C[C@@H](CC)[C@H](NC(=O)OC(C)(C)C(C)(F)F)C(=O)N4C3)nccc2c1 [Compound 5359] | 1.01 to 5 nM | 1.01 to 5 nM | – | – | – | –
CCOc1ccc2c(O[C@@H]3C[C@H]4C(=O)N[C@]5(C(=O)NS(=O)(=O)C6CC6)C[C@H]5/C=C\CC[C@@H](C)C[C@@H](CC)[C@H](NC(=O)OC(C)(C)C)C(=O)N4C3)nccc2c1 [Compound 5361, tert-butyl ((2R,6S,7R,9R,13aS,14aR,16aS,Z)-14a-((cyclopropylsulfonyl)carbamoyl)-2-((6-ethoxyisoquinolin-1-yl)oxy)-7-ethyl-9-methyl-5,16-dioxo-1,2,3,5,6,7,8,9,10,11,13a,14,14a,15,16,16a-hexadecahydrocyclopropa[e]pyrrolo[1,2-a][1,4]diazacyclopentadecin-6-yl)carbamate] | 0.51 to 1 nM | 0.51 to 1 nM | – | – | – | –
CCOc1ccc2c(O[C@@H]3C[C@H]4C(=O)N[C@]5(C(=O)NS(=O)(=O)C6(CF)CC6)C[C@H]5/C=C\CC[C@@H](C)C[C@@H](C)[C@H](NC(=O)OC(C)(C)C(F)(F)F)C(=O)N4C3)nccc2c1 [Compound 5363, 1,1,1-trifluoro-2-methylpropan-2-yl((2R,6S,7R,9R,13aS,14aR,16aS,Z)-2-((6-ethoxyisoquinolin-1-yl)oxy)-14a-(((1-(fluoromethyl)cyclopropyl)sulfonyl)carbamoyl)-7,9-dimethyl-5,16-dioxo-1,2,3,5,6,7,8,9,10,11,13a,14,14a,15,16,16a-hexadecahydrocyclopropa[e]pyrrolo[1,2-a][1,4]diazacyclopentadecin-6-yl)carbamate] | 1.01 to 5 nM | 0.51 to 1 nM | – | – | – | –
CCOc1ccc2c(O[C@@H]3C[C@H]4C(=O)N[C@]5(C(=O)NS(=O)(=O)C6(CF)CC6)C[C@H]5/C=C\CC[C@@H](C)C[C@@H](C)[C@H](NC(=O)OC(C)(C)C(C)(F)F)C(=O)N4C3)nccc2c1 [Compound 5365, 3,3-difluoro-2-methylbutan-2-yl((2R,6S,7R,9R,13aS,14aR,16aS,Z)-2-((6-ethoxyisoquinolin-1-yl)oxy)-14a-(((1-(fluoromethyl)cyclopropyl)sulfonyl)carbamoyl)-7,9-dimethyl-5,16-dioxo-1,2,3,5,6,7,8,9,10,11,13a,14,14a,15,16,16a-hexadecahydrocyclopropa[e]pyrrolo[1,2-a][1,4]diazacyclopentadecin-6-yl)carbamate] | 1.01 to 5 nM | 0.51 to 1 nM | – | – | – | –
CCOc1ccc2c(O[C@@H]3C[C@H]4C(=O)N[C@]5(C(=O)NS(=O)(=O)C6(CF)CC6)C[C@H]5/C=C\CC[C@@H](C)C[C@@H](C)[C@H](NC(=O)OC(C)(C)C)C(=O)N4C3)nccc2c1 [Compound 5367, tert-butyl ((2R,6S,7R,9R,13aS,14aR,16aS,Z)-2-((6-ethoxyisoquinolin-1-yl)oxy)-14a-(((1-(fluoromethyl)cyclopropyl)sulfonyl)carbamoyl)-7,9-dimethyl-5,16-dioxo-1,2,3,5,6,7,8,9,10,11,13a,14,14a,15,16,16a-hexadecahydrocyclopropa[e]pyrrolo[1,2-a][1,4]diazacyclopentadecin-6-yl)carbamate] | 0.51 to 1 nM | 0.1 to 0.5 nM | – | – | – | –
CCOc1ccc2c(O[C@@H]3C[C@H]4C(=O)N[C@]5(C(=O)NS(=O)(=O)C6(C)CC6)C[C@H]5/C=C\CC[C@@H](C)C[C@@H](CC)[C@H](NC(=O)OC(C)(C)C(F)(F)F)C(=O)N4C3)nccc2c1 [Compound 5369, 1,1,1-trifluoro-2-methylpropan-2-yl((2R,6S,7R,9R,13aS,14aR,16aS,Z)-2-((6-ethoxyisoquinolin-1-yl)oxy)-7-ethyl-9-methyl-14a-(((1-methylcyclopropyl)sulfonyl)carbamoyl)-5,16-dioxo-1,2,3,5,6,7,8,9,10,11,13a,14,14a,15,16,16a-hexadecahydrocyclopropa[e]pyrrolo[1,2-a][1,4]diazacyclopentadecin-6-yl)carbamate] | 1.01 to 5 nM | 1.01 to 5 nM | – | – | – | –
CCOc1ccc2c(O[C@@H]3C[C@H]4C(=O)N[C@]5(C(=O)NS(=O)(=O)C6(C)CC6)C[C@H]5/C=C\CC[C@@H](C)C[C@@H](CC)[C@H](NC(=O)OC(C)(C)C(C)(F)F)C(=O)N4C3)nccc2c1 [Compound 5371, 3,3-difluoro-2-methylbutan-2-yl((2R,6S,7R,9R,13aS,14aR,16aS,Z)-2-((6-ethoxyisoquinolin-1-yl)oxy)-7-ethyl-9-methyl-14a-(((1-methylcyclopropyl)sulfonyl)carbamoyl)-5,16-dioxo-1,2,3,5,6,7,8,9,10,11,13a,14,14a,15,16,16a-hexadecahydrocyclopropa[e]pyrrolo[1,2-a][1,4]diazacyclopentadecin-6-yl)carbamate] | 1.01 to 5 nM | 0.51 to 1 nM | – | – | – | –
